Patent publication US8389794B2, “Transgenic pig as a model of Alzheimer's disease” (Aarhus Universitet, priority 2007, dated 2013)
Where a SMILES comes first, the peptide text is derived from it. [ ]: non-standard residue; d: D form. Nle = CCCC[C@H](N)C(=O)O

Experiments:
APP695 = test: Western blot (antibody 6E10) of fibroblasts grown with protease inhibitors; assay type: cell-based, Göttingen minipig
Description: A Western blot using a commercial anti-APP antibody (6E10), […], was performed according to the manufacturer's recommendations. The Western blot was performed on extracts from fibroblast cells of a transgenic pig (lanes 1 and 2) and on extracts from fibroblast cells of a wt pig (lanes 3 and 4), see FIG. 10. In lane 1 the fibroblasts have been treated with the protease inhibitor ALLN, whereas the fibroblasts of lane 2 have not received treatment. […] In contrast, the lower molecular weight products are not present in similar amounts as in lane 2. Lanes 3 and 4 contain extracts of fibroblasts from wt pigs and no effect of ALLN treatment is evident in comparison to the extracts of transgenic pigs.
a) Non-transgenic donor fibroblasts (74114 cells) and fibroblasts from transgenic minipiglet No. 47 were grown to 80% confluence in a 75 cm2 flask. The cells from each flask were resuspended in 24 ml medium and transferred to a 6-well plate (TPP, Schwitzerland) with 2.5 ml of the cell suspension in each well. Medium was changed the following day with 2 ml fresh medium containing the chemical at the indicated concentration were added to the wells of both plates: well No. 1, 5 μM Lactacystin; well No. 2, 20 μM Leupeptin; well No. 3, 20 μl DMSO; well No. 4, 20 μM ALLN; well No. 5, 2.5 mM NH4Cl. After 6 hrs incubation the cells from each well were harvested and transferred to an 1.5 ml Eppendorf tube. 30 μl ddH20, 2 μl reducing agent and 8 μl loading buffer (Fermentas) were added, the tubes were placed in boiling water for 5 min. and spun at full speed for 1 min. in an Eppendorf centrifuge. 15 μl of each sample were loaded on a 4-15% polyacrylamid gel (BioRad), run at 45 mAmp for 90 min. Transfer to PVDF membrane (GE Healthcare) was done at 75 volt for 30 min., and the membrane was stained with anti-human APP monoclonal antibody 6E10 (SIGNET) at dilution 1:1000, and as secondary antibody polyclonal goat anti-mouse immunoglobulines/HRP (Dako Cytomation) at dilution 1:2000. b) Extraction of protein from brain tissue was done with 100-200 mg flash frozen cortical tissue homogenized in a tissue-grinder with 3 ml lysis buffer (Tris-HCl 50 mM, EDTA 10 mM, SDS 1%, Triton X-100 0.5%, ⅓ Protease Inhibitor Cocktail Tablet (Roche), pH 8.0). The solution was transferred to an Eppendorf tube (1 ml), centrifuged at 12,000 rpm for 2 min at 4° C. and supernatant transferred to a new tube. After vortexing the tube was frozen in dry ice for 3 min, thawed at 37° C. for 3 min, and this freeze/thaw step was repeated 3 times. Finally, the solution was centrifuged at 14,000 rpm (4° C.) for 10 min, the pellet discarded and the protein concentration of the supernatant determined. 8 μg protein extract was loaded in each lane of the polyacrylamid gel. Western blotting was done as described above. […]

β-secretase = biological target: T1, β-secretase (Mus musculus, UniProt P56818); details: oral administration, APP transgenic mice; cited from earlier work
T1 construct: host or cells: brain of APP transgenic mice (in vivo, oral dosing)
T1 sequence (P56818 46-501): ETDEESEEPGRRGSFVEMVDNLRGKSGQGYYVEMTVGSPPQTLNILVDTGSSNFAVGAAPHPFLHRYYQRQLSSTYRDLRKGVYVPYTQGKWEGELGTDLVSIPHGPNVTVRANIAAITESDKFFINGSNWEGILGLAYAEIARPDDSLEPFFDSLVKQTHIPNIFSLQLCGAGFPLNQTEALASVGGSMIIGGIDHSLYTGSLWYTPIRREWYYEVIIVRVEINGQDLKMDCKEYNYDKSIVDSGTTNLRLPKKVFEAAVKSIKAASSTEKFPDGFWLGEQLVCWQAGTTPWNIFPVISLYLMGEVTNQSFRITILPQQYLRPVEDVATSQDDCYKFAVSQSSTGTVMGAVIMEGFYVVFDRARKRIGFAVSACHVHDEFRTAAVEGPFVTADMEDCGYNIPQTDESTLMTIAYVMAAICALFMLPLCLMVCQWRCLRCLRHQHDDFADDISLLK

PDAPP transgenic mouse = details: subcutaneous immunization, 100 ug in complete Freund adjuvant; cited from earlier work

## CCCC[C@@H](C=O)NC(=O)[C@H](CC(C)C)NC(=O)[C@H](CC(C)C)NC(C)=O [ALLN] (Ac-Leu-Leu-[Nle]-aldehyde)
APP695; 20 μM ALLN in medium, fibroblasts of transgenic piglet No. 47 vs donor cells 74114
  difference in intensity of the APP695 bands, transgenic vs non-transgenic fibroblasts: becomes more pronounced
APP695; ALLN treated fibroblasts of transgenic pig vs untreated
  bands of lower molecular weight than mutated APP: increased in intensity

## CCNc1cc(C(=O)N[C@@H](Cc2ccccc2)[C@H](O)CNCc2cccc(C(F)(F)F)c2)c(F)c(N2CCCCS2(=O)=O)c1 [GSK188909]
β-secretase
  brain Abeta: significant lowering

## Cl.N [ammonium chloride]
APP695; ammonium chloride in medium (2.5 mM NH4Cl per method), data not shown
  difference in intensity of the APP695 bands, transgenic vs non-transgenic fibroblasts: no such effect

## CC(=O)N[C@@H](CC(C)C)C(=O)N[C@@H](CC(C)C)C(=O)N[C@H](C=O)CCCNC(=N)N [leupeptin]
APP695; leupeptin in medium (20 μM per method), data not shown
  difference in intensity of the APP695 bands, transgenic vs non-transgenic fibroblasts: no such effect

## Abeta 1-42 antigen: Abeta 1-42 antigen in complete Freund adjuvant for active immunization
PDAPP transgenic mouse
  accumulation of plaques in the brain: reduces the accumulation of plaques
